# Source: patent US11607398B2, “Chlorogenic acid composition and method of weight management” (Vidya Herbs, Inc., priority 2015, dated 2023)
# Where “and” joins values, the source holds several entries; their conditions need not be identical. Equal values may be shown once.
# What was measured:
# [1] = Reducing power assay (Fe3+ to Fe2+); assay type: biochemical; set-up: Reducing power activity: unit not given here
# [2] = Superoxide anion scavenging activity (NBT/NADH/PMS); assay type: biochemical
# Procedure: Prepared all the solutions in this experiment using phosphate buffer (pH 7.4). Added 1 ml of NBT (156 μM), 1 ml of NADH (468 μM) and 3 ml of test samples to all test tubes. The reaction was started by adding 100 ml of PMS (60 μM) and incubated the mixture at 25° C. for 5 min followed by measurement of absorbance at 560 nm. The percentage of scavenging was calculated using formula: % Scavenging=Ac−As/Ac×100 Where AC was the absorbance of the control (blank) and As was the absorbance in the presence of the composition.
# [3] = DPPH radical scavenging assay; assay type: biochemical
# Procedure: The free radical scavenging capacity of the test sample was determined using DPPH scavenging assay. DPPH solution was prepared in 95% methanol. Freshly prepared DPPH solution was taken in test tubes and different concentration of test samples were added and incubated for 20 min. The absorbance was read at 517 nm using a spectrophotometer. Blank was prepared containing the same volume of reaction mixture without any tested samples. The percentage of scavenging was calculated using the formula: % Scavenging=Ac−As/Ac×100 Where AC was the absorbance of the control (blank) and AS was the absorbance in the presence of the composition (Braca et al., 2001).
# calf thymus DNA = assay: Protective effect on DNA scission induced by hydroxyl radical (TBA assay); assay type: biochemical
# Procedure: In this assay hydroxyl radicals are typically generated within a mixture of ascorbic acid, H2O2 and Fe3+-ethylenediaminetetracetic acid (EDTA); those radicals that are not scavenged by other components of the reaction mixture will eventually attack deoxyribose, thus degrading it into a series of fragments.
# The experiment was conducted using calf thymus DNA. Briefly, sample was dissolved in ethanol at 1 mg/mL. 50 μl of different concentration of sample was then separately taken into mini tubes followed by addition of 400 μL of phosphate buffer (0.2 mol/L, pH 7.4). Subsequently, 50 μL DNA sodium, 50 μL H2O2, 50 μL FeCl3 and 50 μL Na2EDTA (1 mmol/L) were added. The reaction was initiated by adding 50 μL ascorbic acid (18 mmol/L) and the total volume of the reaction mixture was adjusted to 800 μL with buffer. After incubation in a water bath at 55° C. for 20 min, the reaction was terminated by adding 250 μL TCA.
# The color was then developed by addition of 150 μL of TBA and heating in an oven at 105° C. for 15 min. The mixture was cooled and absorbance was measured at 532 nm against the buffer (as blank). The percent of protection against DNA damage is expressed Protective effect %=(1−A/A0)×100 Where A0 is the absorbance of the mixture without sample, and A is the absorbance of the mixture with sample. Results
# [4] = tested on: Salmonella typhimurium TA 98; assay: Ames Salmonella mutagenicity test (preincubation method), strain TA 98; assay type: cell-based; settings: TA 98, +s9, positive control, concentration not given
# [5] = tested on: Salmonella typhimurium TA 100; assay type: cell-based; settings: TA 100, +s9, positive control, concentration not given
smiles,measurement,setting,value
O=C1O[C@H]([C@@H](O)CO)C(O)=C1O [Ascorbic acid],"Absorbance (reductive capability, 700 nm)",[1]; 100 μg/ml,0.970
same,Reducing power activity,[1]; 20 (Table 7; range 20-100 μg/ml per text),15.46
same,Reducing power activity,[1]; 40 (Table 7),16.60
same,Reducing power activity,[1]; 60 (Table 7),16.61
same,Reducing power activity,[1]; 80 (Table 7),17.33
same,Reducing power activity,[1]; 100 (Table 7),18.59
same,% inhibition (superoxide scavenging activity),[2]; 20 μg/ml,84.80%
same,Absorbance @560 nm,[2]; 20 μg/ml,0.038
same,% inhibition (superoxide scavenging activity),[2]; 40 μg/ml,85.20%
same,Absorbance @560 nm,[2]; 40 μg/ml,0.037
same,% inhibition (superoxide scavenging activity),[2]; 60 μg/ml,88.40%
same,Absorbance @560 nm,[2]; 60 μg/ml,0.029
same,% inhibition (superoxide scavenging activity),[2]; 80 μg/ml,89.20%
same,Absorbance @560 nm,[2]; 80 μg/ml,0.027
same,% inhibition (superoxide scavenging activity),[2]; 100 μg/ml,89.60%
same,Absorbance @560 nm,[2]; 100 μg/ml,0.026
same,% inhibition (DPPH scavenging activity),[3]; 20 μg/ml,83.21%
same,Absorbance @517 nm,[3]; 20 μg/ml,0.046
same,% inhibition (DPPH scavenging activity),[3]; 40 μg/ml,90.88%
same,Absorbance @517 nm,[3]; 40 μg/ml,0.025
same,% inhibition (DPPH scavenging activity),[3]; 60 μg/ml,94.53%
same,Absorbance @517 nm,[3]; 60 μg/ml,0.015
same,% inhibition (DPPH scavenging activity),[3]; 80 μg/ml,94.89%
same,Absorbance @517 nm,[3]; 80 μg/ml,0.014
same,% inhibition (DPPH scavenging activity),[3]; 100 μg/ml,96.72%
same,Absorbance @517 nm,[3]; 100 μg/ml,0.009
same,% inhibition (DPPH scavenging activity),"[3]; 100 μg/ml, listed as ascorbic acid",96.71%
COc1ccc(O)c(C(C)(C)C)c1 [BHA],% protective effect (DNA damage),calf thymus DNA; 10 μg/ml,15.79 ± 0.89%
same,% protective effect (DNA damage),calf thymus DNA; 20 μg/ml,19.25 ± 1.09%
same,% protective effect (DNA damage),calf thymus DNA; 40 μg/ml,32.50 ± 2.12%
same,% protective effect (DNA damage),calf thymus DNA; 60 μg/ml,39.16 ± 0.33%
same,% protective effect (DNA damage),calf thymus DNA; 80 μg/ml,43.04 ± 0.29%
same,% protective effect (DNA damage),calf thymus DNA; 100 μg/ml,51.37% and 51.37 ± 4.06%
"Nc1ccc2cc3ccccc3cc2c1 [PC 2AF, 2-aminoanthracene]",Revertant colonies/plate (Mean n = 2 ± S.D.),[4],1560 ± 3.53 Revertant colonies/plate
same,Revertant colonies/plate (Mean n = 2 ± S.D.),[5],2737 ± 4.9 Revertant colonies/plate
